Measurements: the NIST ThermoML archive (doi:10.1016/j.jct.2018.02.022)

Experiment: xn = mol fraction of the nth substance listed
Conditions: 92.3 kPa, Liquid; for viscosity: Concentric cylinders viscometry; for speed of sound: Frequency=3 MHz, Single path-length method; for mass density: Vibrating tube method

OCC(O)CO [glycerol] + O
Conditions	mass density [kg/m3]	speed of sound [m/s]	viscosity [mPa·s]
293.15 K, x1 = 0.011	1010.85	1505.6	–
293.15 K, x1 = 0.021	1021.71	1526.4	–
293.15 K, x1 = 0.0302	1031.17	1544.8	–
293.15 K, x1 = 0.0398	1040.58	1563.4	–
293.15 K, x1 = 0.0546	1054.09	1590.1	–
293.15 K, x1 = 0.0651	1062.84	1608.2	–
293.15 K, x1 = 0.0721	1068.61	1619.8	–
293.15 K, x1 = 0.0793	1073.97	1630.9	–
293.15 K, x1 = 0.0898	1081.8	1646.9	–
293.15 K, x1 = 0.0998	1088.82	1661.3	3.277
293.15 K, x1 = 0.1198	1101.67	1687.5	–
293.15 K, x1 = 0.1549	1121.66	1727.7	5.662
293.15 K, x1 = 0.2024	1143.7	1770.2	–
293.15 K, x1 = 0.2534	1162.81	1804.7	13.67
293.15 K, x1 = 0.2959	1176	1826.9	19.73
293.15 K, x1 = 0.3504	1190.05	1846.7	30.2
293.15 K, x1 = 0.4006	1200.88	1863.9	45.08
293.15 K, x1 = 0.4477	1209.47	1874.9	63.42
293.15 K, x1 = 0.4983	1217.48	1884.4	90.21
293.15 K, x1 = 0.5471	1224.33	1891.7	124.25
293.15 K, x1 = 0.6046	1231.03	1898.3	182.07
293.15 K, x1 = 0.6469	1235.49	1902.4	234.23
293.15 K, x1 = 0.7006	1240.52	1906.8	322.03
293.15 K, x1 = 0.7465	1244.44	1910.2	419.77
293.15 K, x1 = 0.7942	1248.13	1913.5	535.66
293.15 K, x1 = 0.8497	1251.95	1916.8	705.87
293.15 K, x1 = 0.8993	1254.99	1919.1	897.16
293.15 K, x1 = 0.9196	1256.26	1920.6	–
293.15 K, x1 = 0.9322	1256.97	1921.3	–
293.15 K, x1 = 0.9462	1257.78	1922.1	1125.1
293.15 K, x1 = 0.9562	1258.3	1922.6	–
293.15 K, x1 = 0.9855	1259.96	1924.3	–
293.15 K, x1 = 1	1260.73	1925.5	1408.4
298.15 K, x1 = 0.011	1009.54	1518.5	–
298.15 K, x1 = 0.021	1020.28	1538	–
298.15 K, x1 = 0.0302	1029.64	1555.4	–
298.15 K, x1 = 0.0398	1038.94	1572.8	–
298.15 K, x1 = 0.0546	1052.3	1598	–
298.15 K, x1 = 0.0651	1060.94	1615	–
298.15 K, x1 = 0.0721	1066.65	1625.8	–
298.15 K, x1 = 0.0793	1071.95	1636.2	–
298.15 K, x1 = 0.0898	1079.69	1651.3	–
298.15 K, x1 = 0.0998	1086.64	1664.9	2.631
298.15 K, x1 = 0.1198	1099.36	1689.5	–
298.15 K, x1 = 0.1549	1119.16	1727.3	4.416
298.15 K, x1 = 0.2024	1141.01	1767.4	–
298.15 K, x1 = 0.2534	1159.99	1800	10.4
298.15 K, x1 = 0.2959	1173.1	1821	14.91
298.15 K, x1 = 0.3504	1187.09	1841.6	22.91
298.15 K, x1 = 0.4006	1197.86	1856.1	33.73
298.15 K, x1 = 0.4477	1206.42	1866.5	46.86
298.15 K, x1 = 0.4983	1214.4	1875.4	65.72
298.15 K, x1 = 0.5471	1221.23	1882.4	89.21
298.15 K, x1 = 0.6046	1227.93	1888.6	126.31
298.15 K, x1 = 0.6469	1232.4	1892.3	163.54
298.15 K, x1 = 0.7006	1237.44	1896.3	220.14
298.15 K, x1 = 0.7465	1241.37	1899.4	283.91
298.15 K, x1 = 0.7942	1245.06	1902.3	358.24
298.15 K, x1 = 0.8497	1248.81	1905.2	463.79
298.15 K, x1 = 0.8993	1251.84	1907	584.38
298.15 K, x1 = 0.9196	1253.1	1908.2	–
298.15 K, x1 = 0.9322	1253.82	1908.7	–
298.15 K, x1 = 0.9462	1254.68	1909.8	725.78
298.15 K, x1 = 0.9562	1255.2	1909.8	–
298.15 K, x1 = 0.9855	1256.87	1911	–
298.15 K, x1 = 1	1257.65	1911.9	900.44
303.15 K, x1 = 0.011	1008.02	1529.5	–
303.15 K, x1 = 0.021	1018.65	1548	–
303.15 K, x1 = 0.0302	1027.91	1564.3	–
303.15 K, x1 = 0.0398	1037.12	1580.8	–
303.15 K, x1 = 0.0546	1050.34	1604.4	–
303.15 K, x1 = 0.0651	1058.89	1620.4	–
303.15 K, x1 = 0.0721	1064.55	1630.6	–
303.15 K, x1 = 0.0793	1069.8	1640.5	–
303.15 K, x1 = 0.0898	1077.46	1654.6	–
303.15 K, x1 = 0.0998	1084.34	1667.4	2.405
303.15 K, x1 = 0.1198	1096.94	1690.6	–
303.15 K, x1 = 0.1549	1116.57	1726.2	3.932
303.15 K, x1 = 0.2024	1138.25	1764	–
303.15 K, x1 = 0.2534	1157.11	1794.9	8.807
303.15 K, x1 = 0.2959	1170.15	1814.7	12.34
303.15 K, x1 = 0.3504	1184.07	1834.3	18.45
303.15 K, x1 = 0.4006	1194.81	1848	26.45
303.15 K, x1 = 0.4477	1203.34	1857.9	36.01
303.15 K, x1 = 0.4983	1211.29	1866.4	49.18
303.15 K, x1 = 0.5471	1218.12	1872.9	65.39
303.15 K, x1 = 0.6046	1224.8	1878.8	91.76
303.15 K, x1 = 0.6469	1229.27	1882.3	116.57
303.15 K, x1 = 0.7006	1234.31	1886	154.03
303.15 K, x1 = 0.7465	1238.26	1888.8	196.75
303.15 K, x1 = 0.7942	1241.97	1891.5	245.24
303.15 K, x1 = 0.8497	1245.72	1894.1	314.35
303.15 K, x1 = 0.8993	1248.75	1895.6	391.29
303.15 K, x1 = 0.9196	1250	1896.7	–
303.15 K, x1 = 0.9322	1250.72	1896.9	–
303.15 K, x1 = 0.9462	1251.51	1897.2	477.66
303.15 K, x1 = 0.9562	1252.03	1897.8	–
303.15 K, x1 = 0.9855	1253.69	1898.9	–
303.15 K, x1 = 1	1254.48	1899.6	593.09
308.15 K, x1 = 0.011	1006.3	1538.8	–
308.15 K, x1 = 0.021	1016.83	1556.4	–
308.15 K, x1 = 0.0302	1026.01	1571.8	–
308.15 K, x1 = 0.0398	1035.13	1587.3	–
308.15 K, x1 = 0.0546	1048.23	1609.6	–
308.15 K, x1 = 0.0651	1056.7	1624.6	–
308.15 K, x1 = 0.0721	1062.31	1634.3	–
308.15 K, x1 = 0.0793	1067.51	1643.6	–
308.15 K, x1 = 0.0898	1075.13	1656.9	–
308.15 K, x1 = 0.0998	1081.93	1668.9	2.102
308.15 K, x1 = 0.1198	1094.42	1690.8	–
308.15 K, x1 = 0.1549	1113.89	1724.3	3.385
308.15 K, x1 = 0.2024	1135.43	1760.1	–
308.15 K, x1 = 0.2534	1154.17	1789.3	7.44
308.15 K, x1 = 0.2959	1167.15	1808.1	10.25
308.15 K, x1 = 0.3504	1181.02	1826.7	14.92
308.15 K, x1 = 0.4006	1191.72	1839.7	20.87
308.15 K, x1 = 0.4477	1200.23	1849	27.91
308.15 K, x1 = 0.4983	1208.14	1857.6	37.43
308.15 K, x1 = 0.5471	1214.97	1863.4	49.12
308.15 K, x1 = 0.6046	1221.64	1869	65.97
308.15 K, x1 = 0.6469	1226.11	1872.2	85.3
308.15 K, x1 = 0.7006	1231.15	1875.7	111.01
308.15 K, x1 = 0.7465	1235.11	1878.4	140.28
308.15 K, x1 = 0.7942	1238.83	1880.9	172.49
308.15 K, x1 = 0.8497	1242.6	1883.6	218.85
308.15 K, x1 = 0.8993	1245.64	1884.6	270.27
308.15 K, x1 = 0.9196	1246.89	1885.5	–
308.15 K, x1 = 0.9322	1247.62	1885.8	–
308.15 K, x1 = 0.9462	1248.4	1886.3	326.69
308.15 K, x1 = 0.9562	1248.93	1886.6	–
308.15 K, x1 = 0.9855	1250.59	1887.5	–
308.15 K, x1 = 1	1251.38	1888.1	401.76
